Literature values as cited in patent publication US20230312573A1, “NOVEL SALTS, CRYSTALS, AND CO-CRYSTALS” (INTRA-CELLULAR THERAPIES, INC., priority 2021, published 2023).

Experiments:
5-HT2C receptor = target: T1, 5-HT2C receptor (Homo sapiens, UniProt P28335)
T1 sequence (P28335 33-458): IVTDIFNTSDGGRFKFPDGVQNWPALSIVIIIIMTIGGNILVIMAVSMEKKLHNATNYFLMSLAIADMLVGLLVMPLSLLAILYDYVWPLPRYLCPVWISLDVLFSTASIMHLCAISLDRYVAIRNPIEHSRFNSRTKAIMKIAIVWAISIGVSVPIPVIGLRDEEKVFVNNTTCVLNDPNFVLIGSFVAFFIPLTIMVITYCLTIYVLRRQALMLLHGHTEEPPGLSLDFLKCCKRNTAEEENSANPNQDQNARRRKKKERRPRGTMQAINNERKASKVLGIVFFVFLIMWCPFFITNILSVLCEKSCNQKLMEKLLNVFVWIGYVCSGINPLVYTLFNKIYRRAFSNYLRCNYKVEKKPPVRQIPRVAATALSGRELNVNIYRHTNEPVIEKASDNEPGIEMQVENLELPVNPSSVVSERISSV

[1] = target: H1 histaminergic receptor (Homo sapiens, UniProt P35367)
H1 histaminergic receptor, sequence (P35367 whole entry): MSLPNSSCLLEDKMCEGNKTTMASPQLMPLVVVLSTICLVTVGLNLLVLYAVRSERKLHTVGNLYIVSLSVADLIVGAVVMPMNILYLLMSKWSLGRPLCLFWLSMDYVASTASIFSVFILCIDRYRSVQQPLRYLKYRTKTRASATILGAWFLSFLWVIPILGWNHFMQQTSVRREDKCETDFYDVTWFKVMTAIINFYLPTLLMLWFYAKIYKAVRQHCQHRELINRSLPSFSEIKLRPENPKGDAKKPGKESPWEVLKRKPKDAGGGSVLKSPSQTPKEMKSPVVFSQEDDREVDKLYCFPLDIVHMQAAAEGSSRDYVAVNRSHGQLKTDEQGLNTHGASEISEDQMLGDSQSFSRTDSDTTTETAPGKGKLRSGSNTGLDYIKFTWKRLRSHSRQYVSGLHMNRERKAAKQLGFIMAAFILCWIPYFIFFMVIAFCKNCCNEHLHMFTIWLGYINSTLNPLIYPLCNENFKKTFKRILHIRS

CN1CCN2c3c(cccc31)[C@@H]1CN(CCCC(=O)c3ccc(F)cc3)CC[C@@H]12 [Lumateperone, 1-(4-fluoro-phenyl)-4-((6bR,10aS)-3-methyl-2,3,6b,9,10,10a-hexahydro-1H,7H-pyrido[3′,4′:4,5]pyrrolo[1,2,3-de]quinoxalin-8-yl)-butan-1-one]
negligible binding: binding to muscarinic receptors (muscarinic receptor) | binding to 5-HT2C receptors (5-HT2C receptor) | binding to H1 histaminergic receptors [1]
